The values below come from patent publication US20190365788A1, “CYCLIC PHOSPHATE SUBSTITUTED NUCLEOSIDE DERIVATIVES FOR THE TREATMENT OF LIVER DISEASES” (priority 2016, published 2019).

As usually defined, the IC50 is the concentration needed to halve the response being measured.

Where two headings read alike, the source gives them in different places.

In one data set the test system is HuH-1 cells. The data set is described as follows: In vitro inhibition of HuH-1 cells (MTT proliferation assay). The settings on record: 72 h incubation, absorbance 570 nm, read-out: HuH-1: Relative IC50. The class given is cell-based. As to the method:
(§1) The compounds of the invention were tested in cell based in vitro assays comprising HuH-1 cells and HepG2 cells, as in vitro models for potential hepatocellular carcinoma activity.
(§2) HuH-1 cells were purchased from JCRB, HepG2 cells from ATCC, and both tested with the following method:
(§3) Cells are suspended at a specific density in a specific culture medium. Then, 100 μl of cell suspension are plated per well in 96-well plates.
(§4) Compounds or negative controls (DMSO) are added to the cells (100 μl of a compound solution in its specific medium with a final concentration of 0.15% DMSO). Each compound concentration is tested in duplicate (6 concentrations per compound). Cells are incubated at 37° C. for 72 h without treating again.
(§5) SDS is added to control wells (final concentration of 1%) and kept for 15 min at 37° C. SDS 1% represents the positive control of proliferation inhibition. Cell supernatant is removed and 100 μl of a MTT (3-[4.5-dimethylthiazol-2-yl]-2.5-diphenyltetrazolium bromide) solution in fresh medium are added per well (MTT final concentration of 0.5 mg/ml) and incubated for 4 h at 37° C. MTT reaction is stopped and homogenized by adding 100 μl/well of SDS 10%, 0.01M HCl and incubated for 2 h at 37° C. Absorbance is measured at 570 nm.
On the technique in general: Tetrazolium dyes change colour on reduction, which living cells bring about.

Another data set has as its system HepG2 cells. Briefly: In vitro inhibition of HepG2 cells (MTT proliferation assay). In kind it is cell-based. The settings on record: 72 h incubation, absorbance 570 nm, read-out: HepG2: Relative IC50. As to the method: as §1, §2, §3, §4, §5
In another data set the test system is Human Hepatocytes. Briefly: In vitro conversion of prodrug to nucleoside triphosphate (NTP) in human hepatocytes. The settings on record: 1 hour at 10 μM prodrug, intracellular NTP. In kind it is in vitro ADME. As to the method:
The degree of conversion of a prodrug compound of the present invention to its corresponding nucleoside triphosphate (NTP) can be measured in vitro using the procedure described below.
A 2 mM stock solution of the prodrug test compound is prepared in 5% DMSO/95% MeOH to provide a final sample concentration of […]. A 5 μL aliquot is removed from this stock solution and added to 1 mL of either a rat or human cryopreserved hepatocyte sample to provide a control sample at concentration of 1 million cells/mL. This sample is assayed in triplicate and used as a test sample.
Human and rat hepatocytes are removed from liquid nitrogen storage and thawed by submerging the hepatocyte tube into a pre-heated 37° C. waterbath and gently shaking the tube back & forth until thawed. The thawed hepatocytes are then gently poured into a container of Hepatocyte Basal Medium (50 mL, pre-warmed to 37° C.) and washed. The hepatocyte tube is then rinsed out with pre-warmed Hepatocyte Basal Medium and the washed hepatocytes and rinse are combined and centrifuged at 500 rpm for 4 minutes at room temperature. The supernatant is then discarded and the resulting hepatocyte pellet is resuspended with Hepatocyte Basal Medium (pre-warmed to 37° C.) and the final hepatocyte concentration is adjusted to 1 million cells/mL to provide the final hepatocyte suspension.
A 1 mL aliquot is removed from the 1 million cells/mL final hepatocyte suspension, analyzed in triplicate and placed into 20 mL scintillation vial without a cap. 2 mM of the prodrug test sample is then added into the hepatocyte suspension to provide a 10 μM final concentration in the 1 mL hepatocyte sample. […]
The incubated hepatocyte suspension samples are transferred to a microcentrifuge tube using a transfer pipette and centrifuged at 500 rpm for 4 minutes at room temperature. […] The resulting extract solution is then stored in a refrigerator at 4° C. until ready for use, at which point the sample is first subjected to vortexing/sonication to ensure that all hepatocyte cells have burst. […]

As for `COc1nc(N)nc2c1ncn2[C@@H]1O[C@@H]2COP(=O)(OCC[C@@H](C)C(=O)OC(C)C)O[C@H]2[C@@H]1O` (mixture of isomers) [Mixture 5A/5B, Isopropyl (R)-4-(((2S,4aR,6R,7S,7aS)-6-(2-amino-6-methoxy-9H-purin-9-yl)-7-hydroxy-2-oxidotetrahydro-4H-furo[3,2-d][1,3,2]dioxaphosphinin-2-yl)oxy)-2-methylbutanoate and Isopropyl (R)-4-(((2R,4aR,6R,7S,7aS)-6-(2-amino-6-methoxy-9H-purin-9-yl)-7-hydroxy-2-oxidotetrahydro-4H-furo[3,2-d][1,3,2]dioxaphosphinin-2-yl)oxy)-2-methylbutanoate], the IC50 in the data set with HuH-1 cells (Homo sapiens) and in the data set on HepG2 cells (Homo sapiens) was at least 5000 nM each time.
Turning to `CC(C)OC(=O)C(C)CCOP1(=O)OC[C@H]2O[C@@H](n3cc(C(F)(F)F)c(=O)[nH]c3=O)C[C@@H]2O1` (mixture of isomers) [Mixture 6A/6B, Isopropyl 4-(((2S,4aR,6R,7aS)-6-(2,4-dioxo-5-(trifluoromethyl)-3,4-dihydropyrimidin-1 (2H)-yl)-2-oxidotetrahydro-4H-furo[3,2-d][1,3,2]dioxaphosphinin-2-yl)oxy)-2-methylbutanoate and Isopropyl 4-(((2R,4aR,6R,7aS)-6-(2,4-dioxo-5-(trifluoromethyl)-3,4-dihydropyrimidin-1 (2H)-yl)-2-oxidotetrahydro-4H-furo[3,2-d][1,3,2]dioxaphosphinin-2-yl)oxy)-2-methylbutanoate], the IC50 in the data set on HuH-1 cells (Homo sapiens) and in the data set on HepG2 cells (Homo sapiens) was at least 5000 nM in each case.
For `CCOC(=O)[C@H](C)CCOP1(=O)OC[C@H]2S[C@@H](n3ccc(N)nc3=O)[C@@H](F)[C@@H]2O1` (single isomer, unassigned) [Compound 1 Diastereoisomer 1], the concentration for half-maximal inhibition (IC50) in the data set with HuH-1 cells (Homo sapiens) was below 500 nM.
Take `CCOC(=O)[C@H](C)CCOP1(=O)OC[C@H]2S[C@@H](n3ccc(N)nc3=O)[C@@H](F)[C@@H]2O1` (single isomer, unassigned) [Compound 1 Diastereoisomer 2]: in the data set with Human Hepatocytes, the “Human Hepatocyte 1 hour at 10 μM, NTP” value was “A (A=<0.5 μM)”.
Turning to `CC(C)OC(=O)[C@H](C)CCOP1(=O)OC[C@H]2S[C@@H](n3ccc(N)nc3=O)[C@@H](F)[C@@H]2O1` (single isomer, unassigned) [Compound 2 Diastereoisomer 1], the 50% inhibitory concentration (IC50) in the data set with HuH-1 cells (Homo sapiens) is below 500 nM.
As for `CC(C)OC(=O)[C@H](C)CCOP1(=O)OC[C@H]2S[C@@H](n3ccc(N)nc3=O)[C@@H](F)[C@@H]2O1` (single isomer, unassigned) [Compound 2 Diastereoisomer 2], the IC50 was below 500 nM in the data set on HuH-1 cells and 500 to 5000 nM in the data set with HepG2 cells (Homo sapiens). In the data set with Human Hepatocytes, the “Human Hepatocyte 1 hour at 10 μM, NTP” value is “A (A=<0.5 μM)”.
Consider `CC(C)OC(=O)[C@@H](C)CCO[P@@]1(=O)OC[C@H]2O[C@@H](n3cnc4c(N)nc(Cl)nc43)C[C@@H]2O1.CC(C)OC(=O)[C@@H](C)CCO[P@]1(=O)OC[C@H]2O[C@@H](n3cnc4c(N)nc(Cl)nc43)C[C@@H]2O1` (single isomer, unassigned; diastereoisomer 1) [Compound 3 Diastereoisomer 1], for which the values for the IC50 in the data set on HuH-1 cells and in the data set with HepG2 cells were 500 to 5000 nM and below 500 nM, respectively.
As to `CC(C)OC(=O)[C@H](C)CCOP1(=O)OC[C@H]2O[C@@H](n3ccc(NC(=O)c4ccccc4)nc3=O)C(F)(F)[C@@H]2O1` (stereo partly drawn) [Compound 10, Isopropyl (2R)-4-(((4aR,6R,7aR)-6-(4-benzamido-2-oxopyrimidin-1(2H)-yl)-7,7-difluoro-2-oxidotetrahydro-4H-furo[3,2-d][1,3,2]dioxaphosphinin-2-yl)oxy)-2-methylbutanoate], the “Human Hepatocyte 1 hour at 10 μM, NTP” value in the data set with Human Hepatocytes is “C (C=≥1 μM)”.
